The term IC50 denotes the point on the concentration scale where inhibition reaches its midpoint. The term Ki denotes the dissociation constant of the complex between target and ligand, obtained from inhibition or displacement.

A value given as a limit tells only on which side of the number the result lay.

Assay [1] concerns bovine adrenal 3β-hydroxy-Δ^5 -steroid dehydrogenase/3-keto-Δ^5 -steroid isomerase (3BHSD). As to conditions: cited from earlier work.
Assay [2] deals with porcine granulosa cell 3β-hydroxy-Δ^5 -steroid dehydrogenase/3-keto-Δ^5 -steroid isomerase (3BHSD). As to conditions: cited from earlier work.
The target in assay [3] is T1, human type 2 5α-reductase (Homo sapiens, UniProt P31213).
T1 construct: made in house; host or cells: Sf9 insect cells, recombinant baculovirus; microsomes
T1 sequence (P31213 1-254): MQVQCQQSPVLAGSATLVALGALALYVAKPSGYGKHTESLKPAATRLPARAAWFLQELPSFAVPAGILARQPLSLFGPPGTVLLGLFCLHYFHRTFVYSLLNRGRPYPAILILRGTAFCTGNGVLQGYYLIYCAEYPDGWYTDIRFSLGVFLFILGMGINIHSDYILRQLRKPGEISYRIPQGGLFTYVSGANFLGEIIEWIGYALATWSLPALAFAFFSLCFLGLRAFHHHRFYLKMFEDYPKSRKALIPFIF
In words: Inhibition of human type 2 steroid 5α-reductase (microsomes; testosterone to DHT conversion). Type of assay: biochemical. As to conditions: 20 min preincubation, pH 6.0, 8 nM testosterone, 20-40 min, 1 mM NADPH; read-out: IC50 Human Type 2 5AR. On the procedure:
(§1) Enzyme activities may be determined using microsomes derived from: 1) prostate tissue from benign prostatic hyperplasia (BPH) patients; 2) recombinant baculovirus infected SF9 cells that express human type 1 5α-reductase; or 3) recombinant baculovirus infected SF9 cells that express human type 2 5α-reductase. Microsomes were prepared by homogenization of the tissue or cells, followed by differential centrifugation of the homogenate. Microsome extracts were incubated with varying concentrations of [1,2,6,7-^3 H]-testosterone, 1 mM NADPH, and varying amounts of the compounds of formula (I,) i.e. a test compound, in buffer containing a NADPH regenerating system capable of maintaining NADPH concentrations for a period of time within the range 0.5-240 minutes. Corresponding incubations were carried out with no test compound as a control study.
(§2) For type 1 IC50 measurements, assay components except testosterone were preincubated for 10 minutes at pH 7.0, and following the addition of 100 nM testosterone the assays were allowed to proceed for 10-120 minutes. For type 2 IC50 measurements, assay components except testosterone were preincubated for 20 minutes at pH 6.0, and following the addition of 8 nM testosterone the assays were allowed to proceed for 20-40 minutes. The percentage of conversion of testosterone to DHT in the presence of test compounds compared to the corresponding conversion in the control study was estimated using high performance liquid chromatography (HPLC) with radiochemical detection.

The target of the next assay is T2, Human Adrenal 3BHSD (Homo sapiens, UniProt P26439).
T2 construct: microsomes derived from human adrenal tissues; from tissue; host or cells: human adrenal tissue, microsomes
T2 sequence (P26439 1-372): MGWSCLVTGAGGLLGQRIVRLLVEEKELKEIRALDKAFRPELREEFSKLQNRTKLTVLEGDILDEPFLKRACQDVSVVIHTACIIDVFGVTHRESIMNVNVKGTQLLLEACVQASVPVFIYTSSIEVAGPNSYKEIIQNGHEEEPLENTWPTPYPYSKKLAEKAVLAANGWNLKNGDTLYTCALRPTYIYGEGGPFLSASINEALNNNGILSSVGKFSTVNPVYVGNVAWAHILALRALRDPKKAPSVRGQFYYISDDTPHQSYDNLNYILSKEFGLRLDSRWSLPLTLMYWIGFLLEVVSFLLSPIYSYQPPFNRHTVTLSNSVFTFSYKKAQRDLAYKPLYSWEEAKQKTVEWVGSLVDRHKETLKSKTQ
Nature of the assay: Inhibition of human adrenal 3β-hydroxy-Δ^5-steroid dehydrogenase/3-keto-Δ^5-steroid isomerase (3BHSD) (microsomes; DHEA to androstenedione conversion). Type of assay: biochemical. As to conditions: 1 mM NAD+, pH 7.5, 1 to 60 minutes. On the procedure:
Enzyme activities are measured using microsomes derived from human adrenal tissues. Microsomes were prepared by homogenization of the tissue followed by differential centrifugation of the homogenate. Microsome extracts were incubated with varying concentrations of dehydroepiandrosterone (DHEA), 1 mM NAD+, and varying amounts of the compounds of Formula (I), i.e. a test compound, in pH 7.5 buffer for a period of time within the range of 1 to 60 minutes. Corresponding incubations were carried out with no test compound as a control study. The percentage of conversion of DHEA to androstenedione in the presence of test compounds compared to the corresponding conversion in the control study was estimated using HPLC with radiochemical detection.

Assay [4] addresses T3, human type 1 5α-reductase (Homo sapiens, UniProt P18405).
T3 construct: made in house; host or cells: Sf9 insect cells, recombinant baculovirus; microsomes
T3 sequence (P18405 1-259): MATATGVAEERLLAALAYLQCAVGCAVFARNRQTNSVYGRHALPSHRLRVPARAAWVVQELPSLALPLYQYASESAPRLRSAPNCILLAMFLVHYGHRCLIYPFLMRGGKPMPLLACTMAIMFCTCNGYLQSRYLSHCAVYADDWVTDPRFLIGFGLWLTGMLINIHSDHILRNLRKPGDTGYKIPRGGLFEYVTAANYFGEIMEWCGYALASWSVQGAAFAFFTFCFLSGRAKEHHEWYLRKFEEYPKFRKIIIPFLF
Nature of the assay: Inhibition of human type 1 steroid 5α-reductase (microsomes; testosterone to DHT conversion). It is filed as biochemical. As to conditions: 10 min preincubation, pH 7.0, 100 nM testosterone, 10-120 min, 1 mM NADPH; read-out: IC50 Human Type 1 5AR. The protocol:
as §1, §2

Consider `CCN(CC)C(=O)[C@H]1CC[C@H]2[C@@H]3CC[C@H]4N(C)C(=O)CC[C@]4(C)[C@H]3CC[C@]12C` [Compound 4-MA], for which the “inhibition of bovine adrenal 3BHSD” value in assay [1] was “potent inhibition”. Further, the “inhibition of porcine granulosa cell 3BHSD” value in assay [2] is “potent inhibition”.

Regarding `C[C@]12C=CC(=O)N[C@@H]1CC[C@@H]1[C@@H]2CC[C@]2(C)[C@@H](C(=O)NC3(c4cccc(C(F)(F)F)c4)CCCC3)CC[C@@H]12` [Compound 19, 17β-N-1-(3-Trifluoromethylphenyl)cyclopentylcarbamoyl-4-aza-5α-androst-1-en-3-one], the results for the IC50 in assay [3] and in assay [4] were less than 1 nM and 1 to 10 nM, respectively. This molecule also came in with a Ki at Human Adrenal 3BHSD of more than 1000 nM.

Turning to `CC(C)(C)c1ccc(C2(NC(=O)[C@H]3CC[C@H]4[C@@H]5CC[C@H]6NC(=O)C=C[C@]6(C)[C@H]5CC[C@]34C)CCSCC2)cc1` [Compound 20, 17β-N-4-(4-t-Butylphenyl)tetrahydrothiopyranylcarbamoyl-4-aza-5α-androst-1-en-3-one], the 50% inhibitory concentration (IC50) in assay [3] and in assay [4] was less than 1 nM in each case. The same molecule returned an inhibition constant Ki on Human Adrenal 3BHSD of more than 1000 nM.

With `CCC1(CC)CC1(NC(=O)[C@H]1CC[C@H]2[C@@H]3CC[C@H]4NC(=O)C=C[C@]4(C)[C@H]3CC[C@]12C)c1ccc(-c2ccccc2)cc1` (stereo partly drawn) [Compound 21, 17β-N-1-(4-Biphenyl)-2,2-diethylcyclopropylcarbamoyl-4-aza-5α-androst-1-en-3-one], the IC50 in assay [3] and in assay [4] was less than 1 nM throughout. For the same molecule, the Ki on Human Adrenal 3BHSD is more than 1000 nM.

For the molecule `C[C@]12CCC(=O)N[C@@H]1CC[C@@H]1[C@@H]2CC[C@]2(C)[C@@H](C(=O)Nc3cc(C(F)(F)F)ccc3C(F)(F)F)CC[C@@H]12` [Compound 22, 17β-N-(2,5-bis(Trifluoromethyl))phenylcarbamoyl-4-aza-5α-androstan-3-one], the IC50 in assay [3] is less than 1 nM; in assay [4], 1 to 10 nM. Further, the Ki on Human Adrenal 3BHSD was more than 1000 nM.

Turning to `CN1C(=O)CC[C@]2(C)[C@H]3CC[C@]4(C)[C@@H](C(=O)Nc5cc(C(F)(F)F)ccc5C(F)(F)F)CC[C@H]4[C@@H]3CC[C@@H]12` [Compound 23, 17β-N-(2,5-bis(Trifluoromethyl))phenylcarbamoyl-4-methyl-4-aza-5α-androstan-3-one], the IC50 in assay [3] and in assay [4] was less than 1 nM each time. This molecule had a Ki at Human Adrenal 3BHSD of 10 to 10000 nM.

In the case of `CC(C)(C)c1ccc(C(F)(F)F)cc1NC(=O)[C@H]1CC[C@H]2[C@@H]3CC[C@H]4NC(=O)C=C[C@]4(C)[C@H]3CC[C@]12C` [Compound 24, 17β-N-(2-t-Butyl-5-trifluoromethyl)phenylcarbamoyl-4-aza-5α-androst-1-en-3-one], the figures for the IC50 in assay [3] and in assay [4] were less than 1 nM and 1 to 10 nM, respectively. On Human Adrenal 3BHSD, the Ki is more than 1000 nM.

For `CC(C)(C)c1ccc(C(F)(F)F)cc1NC(=O)[C@H]1CC[C@H]2[C@@H]3CC[C@H]4NC(=O)CC[C@]4(C)[C@H]3CC[C@]12C` [Compound 25, 17β-N-(2-t-Butyl-5-trifluoromethyl)phenylcarbamoyl-4-aza-5α-androstan-3-one], the IC50 in assay [3] is less than 1 nM; in assay [4] it was 1 to 10 nM. Moreover, the inhibition constant Ki on Human Adrenal 3BHSD is more than 1000 nM.

Consider `CN1C(=O)CC[C@]2(C)[C@H]3CC[C@]4(C)[C@@H](C(=O)Nc5cc(C(F)(F)F)ccc5C(C)(C)C)CC[C@H]4[C@@H]3CC[C@@H]12` [Compound 26, 17β-N-(2-t-Butyl-5-trifluoromethyl)phenylcarbamoyl-4-methyl-4-aza-5α-androstan-3-one], for which the IC50 in assay [3] and in assay [4] was less than 1 nM in each case. This molecule also displayed a Ki at Human Adrenal 3BHSD of 10 to 10000 nM.

Consider `CC(C)(C)c1ccc(C(C)(C)C)c(NC(=O)[C@H]2CC[C@H]3[C@@H]4CC[C@H]5NC(=O)C=C[C@]5(C)[C@H]4CC[C@]23C)c1` [Compound 27, 17β-N-(2,5-Di-t-butyl)phenylcarbamoyl-4-aza-5α-androst-1-en-3-one], for which the IC50 in assay [3] was less than 1 nM; in assay [4], 1 to 10 nM. At Human Adrenal 3BHSD, this molecule had a Ki of 10 to 10000 nM.

`CC(C)(C)c1ccc(C(C)(C)C)c(NC(=O)[C@H]2CC[C@H]3[C@@H]4CC[C@H]5NC(=O)CC[C@]5(C)[C@H]4CC[C@]23C)c1` [Compound 28, 17β-N-(2,5-Di-t-butyl)phenylcarbamoyl-4-aza-5α-androstan-3-one]: the 50% inhibitory concentration (IC50) in assay [3] was less than 1 nM; in assay [4], 1 to 10 nM. Further, the Ki at Human Adrenal 3BHSD was more than 1000 nM.

Regarding `CN1C(=O)CC[C@]2(C)[C@H]3CC[C@]4(C)[C@@H](C(=O)Nc5cc(C(C)(C)C)ccc5C(C)(C)C)CC[C@H]4[C@@H]3CC[C@@H]12` [Compound 29, 17β-N-(2,5-Di-t-butyl)phenylcarbamoyl-4-methyl-4-aza-5α-androstan-3-one], the IC50 in assay [3] and in assay [4] was less than 1 nM in each case. The molecule further showed a Ki at Human Adrenal 3BHSD of 10 to 10000 nM.

As to `C[C@H]1C[C@H]2NC(=O)C=C[C@]2(C)[C@H]2CC[C@]3(C)[C@@H](C(=O)Nc4cc(C(F)(F)F)ccc4C(F)(F)F)CC[C@H]3[C@H]12` [Compound 30, 17β-N-(2,5-bis(Trifluoromethyl))phenylcarbamoyl-4-aza-7β-methyl-5α-androst-1-en-3-one], the IC50 in assay [3] and in assay [4] was 1 to 10 nM in each case. At Human Adrenal 3BHSD, this molecule showed a Ki of more than 1000 nM.

With `C[C@H]1C[C@H]2NC(=O)C=C[C@]2(C)[C@H]2CC[C@]3(C)[C@@H](C(=O)Nc4cc(C(F)(F)F)ccc4C(C)(C)C)CC[C@H]3[C@H]12` [Compound 31, 17β-N-(2-t-Butyl-5-trifluoromethyl)phenylcarbamoyl-4-aza-7β-methyl-5α-androst-1-en-3-one], the IC50 in assay [3] and in assay [4] was 1 to 10 nM each time. On Human Adrenal 3BHSD, the Ki is more than 1000 nM.

As to `C[C@H]1C[C@H]2NC(=O)C=C[C@]2(C)[C@H]2CC[C@]3(C)[C@@H](C(=O)NC4(c5ccc(Cl)cc5)CCCC4)CC[C@H]3[C@H]12` [Compound 32, 17β-N-1-(4-Chlorophenyl)cyclopentylcarbamoyl-4-aza-7β-methyl-5α-androst-1-en-3-one], the IC50 in assay [3] is less than 1 nM; in assay [4], 1 to 10 nM. On Human Adrenal 3BHSD, this molecule registered a Ki of more than 1000 nM.

For `CC(C)(C)c1ccc(C2(NC(=O)[C@H]3CC[C@H]4[C@@H]5CC[C@H]6NC(=O)C=C[C@]6(C)[C@H]5CC[C@]34C)C3CCCC2CCC3)cc1` (stereo partly drawn) [Compound 33, 17β-N-9-(4-t-Butylphenyl)bicyclo[3.3.1]nonylcarbamoyl-4-aza-5α-androst-1-en-3-one], the IC50 in assay [3] was less than 1 nM; in assay [4], 1 to 10 nM. The molecule further had a Ki on Human Adrenal 3BHSD of more than 1000 nM.

The values above are taken from patent US5817818A, “Androstenones” (Glaxo Wellcome Inc., priority 1996, dated 1998).
